# Results reported in patent publication US10842845B2, “Oxytocin improves treatment of obstructive sleep apnea” (THE GEORGE WASHINGTON UNIVERSITY, priority 2014, dated 2020).
# “Also recorded” adds a separate entry of the source.
# Assays:
# OXT receptors = assay: Calcium imaging in OXT receptor-expressing CHO cells on brainstem slices upon photoactivation of ChR2-containing PVN fibers; type: cell-based, rat; details: from baseline during first second; CIH/H animals with daily injections of CNO (chronic OXT neuron activation); n=17; CIH/H alone 8.1±0.01%
# Description: Visualization of CHO cells expressing OXT receptors and the calcium indicator, as well as ChR2-containing PVN fibers, were performed on a confocal microscope system as previously described (Gamer and Buchel, 2012). To examine activation of OXT receptors upon optogenetic activation of ChR2-expressing PVN fibers in the DMV, CHO cells were pipetted onto the dorsal motor nucleus (DMV) of brain stem slices from animals previously injected with pLenti-Syn-hChR2(H134R)-EYFP-WPRE into the PVN, OXT-sensitive CHO cells within the boundaries of the DMV and in close apposition to ChR2-containing PVN fibers (7.5±0.5 μm) were used for experiments.
# 1-2 weeks after telemetry implantation, DREADDs receptors on PVN OXT neurons were activated daily by intraperitoneal (IP) injection of clozapine-n-oxide (CNO, 1.0 mg/kg). To investigate the effects of CNO on resting BP and HR in both DREADDs-expressing and sham animals, 3 days prior to CIH/H exposure (control days) baseline BP and HR values were recorded for a 20 min period before CNO injection. Animals from each group then received an IP injection of CNO, BP and HR were recorded for 1 hr, and the animals then underwent exposure to air for 8 hr to achieve acclimation to the chambers. […]
# [1] = molecular target: T1, DREADDs receptors on PVN OXT neurons (Homo sapiens, UniProt P20309, A239G/Y149C); assay: Telemetry of resting blood pressure and heart rate before and after CNO injection; type: in vivo, Sprague-Dawley rats
# T1 construct: mCherry (C); host or cells: PVN oxytocin neurons of Sprague-Dawley rats, in vivo, transduced with AAV2-hSyn-DIO-hM3D(Gq)-mCherry and rAAV1-OXT-Cre
# Text: To record blood pressure and heart rate, male Sprague-Dawley rats, 3-4 weeks of age, were anesthetized using isoflurane (2-4%) and a HD-XII pressure transmitter was implanted (Data Sciences International, St Paul, Minn., USA) with its cathether inserted into the abdominal aorta to record pressure and EKG leads were attached subcutaneously to obtain EKG recordings and heart rate. All rats with telemetry devices were allowed 7-14 days to recover from transmitter implantation surgery before any measurements were recorded. Blood pressure and heart rate were recorded via radio-frequency signals obtained through the Ponemah data acquisition system (Data Sciences International). Baseline recordings of blood pressure and heart rate were obtained for 3 days prior to CIH/H exposure. Prior to, and during, the 28 day CIH/H exposure period daily baseline recordings of blood pressure and heart rate were recorded.
# 1-2 weeks after telemetry implantation, DREADDs receptors on PVN OXT neurons were activated daily by intraperitoneal (IP) injection of clozapine-n-oxide (CNO, 1.0 mg/kg). To investigate the effects of CNO on resting BP and HR in both DREADDs-expressing and sham animals, 3 days prior to CIH/H exposure (control days) baseline BP and HR values were recorded for a 20 min period before CNO injection. Animals from each group then received an IP injection of CNO, BP and HR were recorded for 1 hr, and the animals then underwent exposure to air for 8 hr to achieve acclimation to the chambers. During the 21 days of CIH/H exposure, baseline recordings of BP and HR were obtained before CNO injection, recorded for 1 hr post CNO injection, and for the entire duration of OHM exposure.
# To examine the effects of CNO on and the chronic changes to mean arterial blood pressure (MAP) over the 21 days of OHM exposure, values were recorded before and after CNO injection on control days prior to CIH exposures, and days 1, 3, 6, 9, 12, 15, 18, and 21 of CIH/H. Changes within the DREADDs-expressing animals and the sham animals were statistically analyzed by one-way ANOVA with repeated-measures followed by Bonferroni's multiple comparison test. To examine the statistical changes in MAP between the two groups of animals, a two-way ANOVA with repeated-measures followed by Bonferroni's multiple comparison test was used. Data with p<0.05 were considered significant.
# CNO administration had no effect on BP represented as mean arterial pressure (MAP) and HR in sham animals without DREADDs expression (FIGS. 10A and 10B). However, CNO administration that activates DREADDs receptors in PVN OXT neurons decreased resting HR and BP throughout 21 days of CIH/H exposure, with significant decreases in MAP (104±2.6 mmHg before CNO to 93±1.7 mmHg after CNO; n=8; ^+p<0.0001; paired t test; FIG. 10A) and HR (416±7.1 beats/min before CNO to 362±10.5 beats/min after CNO; n=8; ^+p<0.01; paired t test; FIG. 10B).
# T1 sequence (P20309 whole entry Y149C/A239G, the tested form may be a part): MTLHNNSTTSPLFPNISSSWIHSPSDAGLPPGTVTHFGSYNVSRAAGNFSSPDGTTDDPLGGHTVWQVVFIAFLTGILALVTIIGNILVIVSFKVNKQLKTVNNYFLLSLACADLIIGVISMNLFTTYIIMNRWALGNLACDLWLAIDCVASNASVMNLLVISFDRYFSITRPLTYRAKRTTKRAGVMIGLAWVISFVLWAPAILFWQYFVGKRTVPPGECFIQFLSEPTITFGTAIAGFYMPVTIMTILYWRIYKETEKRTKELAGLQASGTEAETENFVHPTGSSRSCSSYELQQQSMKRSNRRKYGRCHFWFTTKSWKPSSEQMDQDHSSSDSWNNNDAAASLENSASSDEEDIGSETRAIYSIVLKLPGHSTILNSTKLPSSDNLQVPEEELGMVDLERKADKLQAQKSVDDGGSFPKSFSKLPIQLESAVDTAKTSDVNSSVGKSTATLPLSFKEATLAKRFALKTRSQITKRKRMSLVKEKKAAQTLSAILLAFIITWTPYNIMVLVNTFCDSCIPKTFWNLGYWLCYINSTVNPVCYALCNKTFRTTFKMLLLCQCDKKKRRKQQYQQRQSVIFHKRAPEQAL
structure (smiles),measurement,setting,value
"C[N+]1([O-])CCN(C2=Nc3cc(Cl)ccc3Nc3ccccc32)CC1 [CNO, clozapine-n-oxide]",average increase in intracellular calcium in OXT-sensitive CHO cells upon photostimulation of ChR2-containing PVN fibers in the DMV,OXT receptors,23.4±0.03%
same,change in HR after CNO injection (in words),"[1]; DREADDs-expressing animals, 45 min after CNO injection, n=8",significantly decreased
same,MAP after CNO,"[1]; DREADDs-expressing animals, CNO 1.0 mg/kg IP, 104±2.6 mmHg before CNO, n=8",93±1.7 mmHg
same,HR after CNO,"[1]; DREADDs-expressing animals, CNO 1.0 mg/kg IP, 416±7.1 beats/min before CNO, n=8",362±10.5 beats/min
same,change in resting MAP after CNO injection (in words),"[1]; oxytocin neuron activated (DREADDs-expressing) animals, 45 min after CNO injection, n=8",significantly decreased
same,effect of CNO on HR in sham animals without DREADDs expression (in words),"[1]; sham animals, n=7",no effect; also recorded: did not significantly change
same,effect of CNO on MAP in sham animals without DREADDs expression (in words),"[1]; sham animals, n=7",no effect; also recorded: did not significantly change
